Results published in US9023789B2, “Amylin analogs and pharmaceutical compositions thereof” (Novo Nordisk A/S, priority 2012, dated 2015).
Numbered stars: 1 amine (or outer) side, 2 acyl side, 3 side chain; on linkers, the order of the positions; unused ones are H or OH. Bridge positions count the residues as written; N and C are the ends. Side chains are listed from the residue outwards. Peptide text beside a SMILES is read from it. * marks the point of attachment. C20 diacid = O=C(O)CCCCCCCCCCCCCCCCCCC(=O)*; γGlu = O=C(O)[C@H](CCC(=O)[*:2])N[*:1]; AEEA = NCCOCCOCC(=O)O

Assays:
[1] = molecular target: T1, human amylin 3(a) receptor (human calcitonin receptor + RAMP-3) in BHK570 cells (Homo sapiens, UniProt O60896+P30988); assay: ASSAY (II)a functional assay, human amylin receptor (CRE luciferase); type: cell-based; conditions: for EC50: human amylin receptor functional potency, assay (II), read-out: hAmylin-R funct. EC50
T1 construct: expressed in transfected cells
Procedure, shortened: (§1)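 BHK CRE-luc cells, calcitonin (a) receptor ± RAMP-3 (amylin 3(a)); overnight seeding, 37° C/5% CO2. 3 h ligand exposure, DMEM/10% FBS/10 mM Hepes pH 7.4. LucLite 30 min RT; luminescence (SPC).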

[2] = molecular target: T2, human calcitonin (a) receptor in BHK570 cells (Homo sapiens, UniProt P30988); assay: ASSAY (II)a functional assay, human calcitonin receptor (CRE luciferase); type: cell-based; conditions: read-out: hCTR funct. EC50
T2 construct: expressed in transfected cells
T2 sequence (P30988 25-474): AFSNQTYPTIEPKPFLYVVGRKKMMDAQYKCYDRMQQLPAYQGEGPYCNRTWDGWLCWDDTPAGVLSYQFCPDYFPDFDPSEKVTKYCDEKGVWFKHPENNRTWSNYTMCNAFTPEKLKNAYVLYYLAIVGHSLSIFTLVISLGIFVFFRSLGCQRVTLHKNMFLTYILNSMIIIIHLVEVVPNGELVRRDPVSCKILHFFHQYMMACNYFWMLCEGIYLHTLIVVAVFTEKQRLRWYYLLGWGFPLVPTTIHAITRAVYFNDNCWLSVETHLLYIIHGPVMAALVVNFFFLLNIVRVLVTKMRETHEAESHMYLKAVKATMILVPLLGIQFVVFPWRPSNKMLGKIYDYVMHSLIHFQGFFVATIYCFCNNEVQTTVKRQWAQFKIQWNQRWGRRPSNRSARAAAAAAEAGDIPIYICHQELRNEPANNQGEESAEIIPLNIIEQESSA
Procedure, shortened: as §1

[3] = molecular target: T3, human amylin receptor (membranes from Amylin 3(a)/CRE-luc cells) (Homo sapiens, UniProt O60896+P30988); assay: ASSAY (V) binding to the human amylin receptor (SPA, 125I-rat amylin); conditions: for IC50: Table 4, read-out: hAmylin-R bind IC50;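 as to all read-outs here: competition binding of cell membranes (35 ng/µL) mixed with SPA beads in 384-well plates at 40 µL total volume, read by scintillation counting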
T3 construct: expressed in transfected cells
T3 sequence (P30988 25-474): T2 sequence (P30988 25-474)
T3 sequence (O60896 24-148 partner): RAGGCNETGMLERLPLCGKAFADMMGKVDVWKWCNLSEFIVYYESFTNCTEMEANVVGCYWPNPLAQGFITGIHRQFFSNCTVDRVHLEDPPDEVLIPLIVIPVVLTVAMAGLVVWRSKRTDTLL
Procedure: The binding assay was performed using scintillation proximity assay (SPA) beads (RPNQ0001) from PerkinElmer and cell membranes from the Amylin 3(a)/CRE-luc cells (as described in Assay (II)) were used. Membranes were prepared in the following way; the cells were rinsed with PBS and incubated with Versene for approximately 5 min before harvesting. The cells were flushed with PBS and the cell-suspension was centrifuged for 5 min at 1000 rpm. […] The resulting pellet was resuspended in buffer 2 and protein concentration was measured (BCA protein Assay, Pierce). The homogenate was kept cold during the whole procedure. The membranes were kept at −80° C. until use. The assay was performed in a 384 well Optiplate (PerkinElmer) in a total volume of 40 ul. Membranes were mixed with SPA beads. Final concentration of membranes 35 ng/μL final and SPA beads was 0.05 mg/well. Test-compounds were dissolved in DMSO and further diluted in assay buffer (50 mM Hepes, pH 7.4, 1 mM CaCl2, 5 mM MgCl2, 0.1% OA and 0.02% Tween20). […] Samples were analyzed on TopCounter™ (Packard). The IC50 was calculated using (one site binding competition analysis) GraphPad Prism5 as a measure of receptor affinity.

[4] = molecular target: T4, human calcitonin receptor (Homo sapiens, UniProt P30988); assay: ASSAY (VII) binding to the human calcitonin receptor (SPA, 125I-Calcitonin); conditions: read-out: hCTR bind IC50;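 also: cell membranes (35 ng/µL) combined with SPA beads in 40 µL of pH 7.4 Hepes buffer, 384-well format, signal counted on a TopCounter instrument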
T4 construct: expressed in transfected cells
T4 sequence (P30988 25-474): T2 sequence (P30988 25-474)

rat calcitonin receptor = molecular target: T5, rat calcitonin receptor (Rattus norvegicus, UniProt P32214); assay: ASSAY (VIII) binding to the rat calcitonin receptor; conditions: Table 7, read-out: rCTR bind IC50
T5 construct: expressed in transfected cells; host or cells: BHK tk'ts 13 (transient, FuGENE 6), membranes
T5 sequence (P32214 25-479 isoform P32214-2 limits assumed): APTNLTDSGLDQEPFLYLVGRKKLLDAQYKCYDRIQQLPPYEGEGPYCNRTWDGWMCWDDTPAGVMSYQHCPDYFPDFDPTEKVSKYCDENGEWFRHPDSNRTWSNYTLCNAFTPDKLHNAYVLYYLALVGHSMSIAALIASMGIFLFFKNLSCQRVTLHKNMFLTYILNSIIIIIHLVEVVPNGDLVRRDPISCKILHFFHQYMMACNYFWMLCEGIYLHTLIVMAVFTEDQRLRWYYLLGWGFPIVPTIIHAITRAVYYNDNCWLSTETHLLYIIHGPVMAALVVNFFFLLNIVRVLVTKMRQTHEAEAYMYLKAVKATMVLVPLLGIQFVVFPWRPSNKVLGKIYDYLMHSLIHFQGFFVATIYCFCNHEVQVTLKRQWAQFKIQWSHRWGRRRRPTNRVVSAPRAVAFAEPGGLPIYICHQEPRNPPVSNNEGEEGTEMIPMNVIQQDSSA
Procedure, shortened: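 Transfect BHK tk′ts 13 cells transiently with rat calcitonin receptor, culture in DMEM containing 10% FBS, collect cells about 48 hours later, then prepare membranes.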

[5] = molecular target: T6, rat amylin receptor (rat calcitonin receptor + rat RAMP 3) (Rattus norvegicus, UniProt P32214+Q9JJ73); assay: ASSAY (VI) binding to the rat amylin receptor; conditions: for IC50: binding to rat amylin receptor, read-out: rAmylin-R bind IC50
T6 construct: expressed in transfected cells; host or cells: BHK tk'ts 13 (transient, FuGENE 6), membranes
T6 sequence (P32214 25-479 isoform P32214-2 limits assumed): T5 sequence (P32214 25-479 isoform P32214-2 limits assumed)
T6 sequence (Q9JJ73 23-147 partner): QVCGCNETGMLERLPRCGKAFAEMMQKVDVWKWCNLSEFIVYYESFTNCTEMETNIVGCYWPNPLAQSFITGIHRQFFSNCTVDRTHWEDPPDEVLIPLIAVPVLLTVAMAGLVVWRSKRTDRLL
Procedure, shortened: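 This assay measured binding to the rat amylin receptor. BHK tk′ts 13 cells were transiently transfected with the rat calcitonin receptor using FuGENE® 6 (Roche), following the manufacturer's recommendations. About 48 hours after transfection, the cells were harvested and membranes were prepared from them for the binding determination.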

[6] = hCTR funct. EC50 divided by hAmylin-R funct. EC50
[7] = hCTR funct. EC50 over hAmylin-R funct. EC50
[8] = human functional selectivity: hCTR funct. EC50 / hAmylin-R funct. EC50
[9] = Table 5, selectivity, hCTR bind IC50 / hAmylin-R bind IC50
[10] = Table 5a, selectivity, hCTR bind IC50 / hAmylin-R bind IC50
[11] = Table 5b, selectivity, hCTR bind IC50 / hAmylin-R bind IC50
[12] = Table 5c, selectivity, hCTR bind IC50 / hAmylin-R bind IC50
[13] = Table 7, human binding selectivity, included for comparison
[14] = Table 7a (preferred compounds), human binding selectivity, included for comparison
[15] = ratio of human calcitonin receptor binding IC50 to human amylin receptor binding IC50
[16] = Table 7, rat binding selectivity, rCTR IC50 / rAmylin-R IC50
[17] = Table 7a (preferred compounds), rat binding selectivity, rCTR IC50 / rAmylin-R IC50
[18] = ratio of rCTR bind IC50 to rAmylin-R bind IC50

SMILES	Ratio hCT/hAmylin funct. [1, 6]	Ratio hCT/hAmylin funct. [1, 7]	EC50 [1] [nM]	Ratio hCT/hAmylin funct. [1, 8]	EC50 [2] [nM]	IC50 [3] [nM]	Ratio hCT/hAmylin binding [3, 9]	Ratio hCT/hAmylin binding [3, 10]	Ratio hCT/hAmylin binding [3, 11]	Ratio hCT/hAmylin binding [3, 12]	Ratio hCT/hAmylin binding [3, 13]	Ratio hCT/hAmylin binding [3, 14]	Ratio hCT/hAmylin binding [3, 15]	IC50 [4] [nM]	IC50 (rat calcitonin receptor) [nM]	IC50 ([5]; Table 7) [nM]	Ratio rCT/rAmylin binding [5, 16]	Ratio rCT/rAmylin binding [5, 17]	Ratio rCT/rAmylin binding [5, 18]	Ratio hCT/hAmylin funct. ([1]; hCTR funct. EC50 / hAmylin-R funct. EC50)
CC[C@H](C)[C@H](NC(=O)[C@H](C)NC(=O)CNC(=O)[C@H](Cc1ccccc1)NC(=O)[C@H](CC(N)=O)NC(=O)[C@@H]1CCCN1C(=O)[C@H](CO)NC(=O)[C@H](CO)NC(=O)[C@H](Cc1c[nH]cn1)NC(=O)[C@H](CCCNC(=N)N)NC(=O)[C@H](CC(C)C)NC(=O)[C@H](Cc1ccccc1)NC(=O)[C@H](CC(N)=O)NC(=O)[C@H](C)NC(=O)[C@H](CC(C)C)NC(=O)[C@H](CCCNC(=N)N)NC(=O)[C@H](CCC(N)=O)NC(=O)[C@@H](NC(=O)[C@H](C)NC(=O)[C@@H]1CSSC[C@H](NC(=O)[C@@H](N)CCCCNC(=O)COCCOCCNC(=O)COCCOCCNC(=O)CC[C@H](NC(=O)CCCCCCCCCCCCCCCCCCC(=O)O)C(=O)O)C(=O)N[C@@H](CC(N)=O)C(=O)N[C@@H]([C@@H](C)O)C(=O)N[C@@H](C)C(=O)N[C@@H]([C@@H](C)O)C(=O)N1)[C@@H](C)O)C(=O)N1CCC[C@H]1C(=O)N[C@@H](CO)C(=O)N[C@@H](CO)C(=O)N[C@H](C(=O)N[C@@H](CC(N)=O)C(=O)N[C@H](C(=O)NCC(=O)N[C@@H](CCCNC(=N)N)C(=O)N[C@@H](CC(N)=O)C(=O)N[C@H](C(=O)N[C@@H](Cc1ccc(O)cc1)C(N)=O)[C@@H](C)O)C(C)C)[C@@H](C)O [Example 95] (H-K([AEEA-AEEA-γGlu-C20 diacid])CNTATCATQRLANFLRHSSPNFGAIPSSTNVGRNTY-NH2; disulfide 2-7 (inferred); N-terminus assumed)	33.0	33.0	0.651	33.0	21.5	0.967	63.4	63.4	63.4	63.4	63.4	63.4	63.4	61.3	389	5.45	71.3	71.3	71.3	
CC[C@H](C)[C@H](NC(=O)[C@H](C)NC(=O)CNC(=O)[C@H](Cc1ccccc1)NC(=O)[C@H](CC(N)=O)NC(=O)[C@@H]1CCCN1C(=O)[C@H](CO)NC(=O)[C@H](CO)NC(=O)[C@H](Cc1c[nH]cn1)NC(=O)[C@H](CCCNC(=N)N)NC(=O)[C@H](CC(C)C)NC(=O)[C@H](Cc1ccccc1)NC(=O)[C@H](C)NC(=O)[C@H](C)NC(=O)[C@H](CC(C)C)NC(=O)[C@H](CCCNC(=N)N)NC(=O)[C@H](CCC(N)=O)NC(=O)[C@@H](NC(=O)[C@H](C)NC(=O)[C@@H]1CSSC[C@H](NC(=O)[C@H](CCCNC(=N)N)NC(=O)CNC(=O)CC[C@H](NC(=O)CCCCCCCCCCCCCCCCCCC(=O)O)C(=O)O)C(=O)N[C@@H](CC(N)=O)C(=O)N[C@@H]([C@@H](C)O)C(=O)N[C@@H](C)C(=O)N[C@@H]([C@@H](C)O)C(=O)N1)[C@@H](C)O)C(=O)N1CCC[C@H]1C(=O)N[C@@H](CO)C(=O)N[C@@H](CO)C(=O)N[C@H](C(=O)N[C@@H](CC(N)=O)C(=O)N[C@H](C(=O)NCC(=O)N[C@@H](Cc1c[nH]cn1)C(=O)N[C@@H](CC(N)=O)C(=O)N[C@H](C(=O)N[C@@H](Cc1ccc(O)cc1)C(N)=O)[C@@H](C)O)C(C)C)[C@@H](C)O [Example 101] ({C20 diacid-γGlu}-GRCNTATCATQRLAAFLRHSSPNFGAIPSSTNVGHNTY-NH2; disulfide 3-8)	4.9	4.9	0.109	4.9	0.537	0.426	68.6	68.6	68.6	68.6	68.6	68.6	68.6	29.2	492	8.07	60.9	60.9	60.9	4.9
